The values below are quoted from earlier work in PMC10224173 (Viruses, 2023).

The data set deals with ZIKV NS2B-NS3 protease (Zika virus, UniProt A0A024B7W1). The conditions noted are these: Table 2; active site inhibitor; ref [43].
Sequence of ZIKV NS2B-NS3 protease (A0A024B7W1 1503-1680): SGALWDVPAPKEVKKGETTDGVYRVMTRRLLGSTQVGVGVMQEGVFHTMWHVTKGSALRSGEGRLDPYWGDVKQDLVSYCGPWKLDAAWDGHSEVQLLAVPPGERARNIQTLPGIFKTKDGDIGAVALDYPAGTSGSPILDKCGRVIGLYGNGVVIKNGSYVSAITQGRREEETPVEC
Sequence of ZIKV NS2B-NS3 protease (A0A024B7W1 1419-1472): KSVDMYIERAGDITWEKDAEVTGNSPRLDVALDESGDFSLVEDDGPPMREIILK

Consider `CC(C)C[C@H]1C(=O)N2CCC[C@H]2[C@]2(O)O[C@](NC(=O)[C@@H]3C=C4c5cccc6[nH]c(Br)c(c56)C[C@H]4N(C)C3)(C(C)C)C(=O)N12` [Bromocriptine], for which the IC50 was 21.6 µM.
